Article PMC9408872, “Harmicens, Novel Harmine and Ferrocene Hybrids: Design, Synthesis and Biological Activity” (International Journal of Molecular Sciences, 2022)
Like-named read-outs stand apart in the source and are kept apart here.

Legend:
[1] = test system: HepG2 (hepatocellular carcinoma); assay: MTT cytotoxicity assay, HepG2; type: cell-based, human; conditions: read-out: IC50 HepG2
Protocol: (§1) The parent compound harmine, as well as the reference drug 5-fluorouracil, were used as positive controls.
(§2) The experiments were carried out on five human cell lines purchased from American Type Culture Collection (ATCC): HepG2 (hepatocellular carcinoma; ATCC® HB-8065™), SW620 (colorectal adenocarcinoma; ATCC® CCL-227™), HCT116 (colorectal carcinoma; ATCC® CCL-247™), MCF-7 (breast adenocarcinoma; ATCC® HTB-22™), and Hek293T (embryonic kidney cells; ATCC® CRL-3216™). All cell lines were cultured as monolayers and maintained in Dulbecco’s Modified Eagle Medium (DMEM) (Capricorn Scientific, Ebsdorfergrund, Germany) supplemented with 10% fetal bovine serum (FBS) (Capricorn Scientific, Ebsdorfergrund, Germany), 100 U/mL penicillin, and 100 µg/mL streptomycin (Capricorn Scientific, Ebsdorfergrund, Germany) in a humidified atmosphere with 5% CO2 at 37 °C. Cells were seeded in 96-well plates (Corning, Durham, NC, USA) at 5000–7000 cells per well (depending on the cell-doubling time of a specific cell line) in 0.1 mL media and cultured for 24 h. The next day, the medium was aspirated, and cells were treated for 72 h. Only the compounds that led to more than a 50% reduction in mitochondrial metabolic activity at a concentration of 50 µM were selected for further analysis. The following concentrations of selected compounds were used: 25, 10, 5, and 1 µM. Working dilutions were freshly prepared on the day of the testing. A fresh growth medium was added to untreated control cells, which were defined as 100% viable. DMSO (0.13%) in DMEM was considered a negative control. 5-Fluorouracil (5-FU) and harmine were used as positive controls. At the end of treatment, the medium was removed, and cells were incubated for 1 h with 0.5 mg/mL MTT (Abcam, Cambridge, MA, USA) dissolved in serum-deprived DMEM. The MTT-containing medium was then removed, and 0.1 mL isopropanol was added per well to lyse cells and dissolve formazan. The optical density was measured at 570 nm using a microplate reader (VICTOR3, PerkinElmer, Waltham, MA, USA). Each test point was performed in triplicate. The absorbance was directly proportional to the cell viability. The IC50 values (concentration required to decrease viability by 50%) were calculated by using nonlinear regression on the sigmoidal dose–response plots and are expressed as mean ± SD.

[2] = test system: MCF-7 (breast adenocarcinoma); assay: cells; conditions: for IC50: read-out: IC50 MCF-7; for SI (MCF-7): selectivity index: ratio of IC50 Hek293T to IC50 MCF-7
Protocol: as §1, §2

[3] = test system: SW620 (colorectal adenocarcinoma); assay: MTT cytotoxicity assay, SW620; type: cell-based, human; conditions: read-out: IC50 SW620
Protocol: as §1, §2

[4] = test system: P. falciparum 3D7 (CQ-sensitive) erythrocytic stages; assay: In vitro drug sensitivity assay (HRP2-ELISA) against erythrocytic stages, Pf3D7; type: cell-based; conditions: read-out: IC50 Pf3D7
Protocol: (§3) The in vitro activity of harmicens 20–37 against the erythrocytic stages of CQ-sensitive (Pf3D7) and multidrug-resistant (PfDd2) P. falciparum strains was evaluated following a previously described method (Table 1).
(§4) The antiplasmodial activity of harmicens 20–37 was evaluated against two strains of P. falciparum (3D7—CQ-sensitive, Dd2—multidrug-resistant) as previously described using the histidine-rich protein 2 (HRP2) assay. Briefly, 96-well plates were pre-coated with the tested compounds in a three-fold dilution before ring-stage parasites were added to complete the culture medium at a hematocrit of 1.5% and parasitemia of 0.05%. After three days of incubation at 37 °C, 5% CO2, and 5% oxygen, plates were frozen until HRP2-ELISA analysis. All compounds were evaluated in duplicate in at least two independent experiments. The IC50 was determined using a nonlinear regression analysis of log concentration–response curves using the drc-package v0.9.0 of R v2.6.1 (R Foundation, Vienna, Austria).

[5] = test system: P. falciparum Dd2 (multidrug-resistant) erythrocytic stages; assay: In vitro drug sensitivity assay (HRP2-ELISA) against erythrocytic stages, PfDd2; type: cell-based; conditions: for IC50: read-out: IC50 PfDd2
Protocol: as §3, §4

[6] = test system: HCT116 (colorectal carcinoma); assay: MTT cytotoxicity assay, HCT116; type: cell-based, human; conditions: for IC50: read-out: IC50 HCT116; for SI (HCT116): selectivity index: ratio of IC50 Hek293T to IC50 HCT116
Protocol: as §1, §2

[7] = test system: Hek293T (embryonic kidney cells); assay: MTT cytotoxicity assay, Hek293T; type: cell-based, human; conditions: 72 h, read-out: IC50 Hek293T
Protocol: as §1, §2

[8] = CQ-sensitive strain, three days incubation, mean ± SD
[9] = multidrug-resistant strain, three days incubation, mean ± SD
[10] = noncancer cell line, MTT, mean ± SD
[11] = Plasmodium falciparum, DD2, 72 h

Row | Compound | IC50 ([1]; 72 h, MTT, mean ± SD) | IC50 ([2]; 72 h, MTT, mean ± SD) | SI (MCF-7) [2] | IC50 ([3]; 72 h, MTT, mean ± SD) | IC50 [4, 8] | IC50 [5, 9] | IC50 ([6]; 72 h, MTT, mean ± SD) | SI (HCT116) [6] | IC50 [7, 10] | other results
1 | 9-((1-(Ferocenylmethyl)-1H-1,2,3-triazol-4-yl)methyl)-7-methoxy-1-methyl-9H-pyrido[3,4-b]indole [Compound 29] | > 50 µM | > 50 µM | >1 | > 50 µM | 2.12 ± 0.81 µM | 2.91 ± 0.05 µM | 14.6 ± 3.7 µM | >3.4 | > 50 µM | –
2 | CCN(CC)CCCC(C)Nc1ccnc2cc(Cl)ccc12 (stereo not shown) [CQ, chloroquine, reference compound] | – | – | – | – | – | – | – | – | – | IC50 ([4]; Plasmodium falciparum, 3D7, 72 h): 0.004 ± 0.002 µM; IC50 [5, 11]: 0.29 ± 0.1 µM
3 | O=c1[nH]cc(F)c(=O)[nH]1 [Compound 5-FU, 5-fluorouracil, reference compound] | – | – | 0.3 | – | – | – | – | 1.6 | – | IC50 ([1]; Homo sapiens, HepG2, 72 h, MTT, mean ± SD): 5.5 ± 0.6 µM; IC50 ([2]; Homo sapiens, MCF7, 72 h): 23.9 ± 5.7 µM; IC50 ([3]; Homo sapiens, SW-620, 72 h, MTT, mean ± SD): 9.4 ± 0.3 µM; IC50 ([6]; Homo sapiens, HCT-116, 72 h, MTT, mean ± SD): 5.2 ± 2.8 µM; IC50 ([7]; Homo sapiens, HEK-293T, noncancer cell line, MTT, mean ± SD): 8.1 ± 0.8 µM
4 | [Fe+2].c1cc[cH-]c1.c1ccc2c(c1)[nH]c1c(Cn3cc(-[c-]4cccc4)nn3)nccc12 [Compound 20, 1-((4-Ferrocenyl-1H-1,2,3-triazol-1-yl)methyl)-9H-pyrido[3,4-b]indole] | 43.9 ± 1.1 µM | 39.4 ± 7.9 µM | >1.3 | > 50 µM | 9.23 ± 1.96 µM | 11.2 ± 2.23 µM | 29.4 ± 4.6 µM | >1.7 | > 50 µM | –
5 | Cc1nc(Cn2cc(-[c-]3cccc3)nn2)cc2c1[nH]c1ccccc12.[Fe+2].c1cc[cH-]c1 [Compound 21, 1-Methyl-3-((4-ferrocenyl-1H-1,2,3-triazol-1-yl)methyl)-9H-pyrido[3,4-b]indole] | > 50 µM | 17.7 ± 0.6 µM | >2.8 | 19.7 ± 1.9 µM | 7.14 ± 0.38 µM | 6.06 ± 1.36 µM | 8.3 ± 1.4 µM | >6 | > 50 µM | –
6 | Cc1nccc2c1[nH]c1ccc(OCCn3cc(-[c-]4cccc4)nn3)cc12.[Fe+2].c1cc[cH-]c1 [Compound 22, 1-Methyl-6-(2-(4-ferrocenyl-1H-1,2,3-triazol-1-yl)ethoxy)-9H-pyrido[3,4-b]indole] | 8.4 ± 0.9 µM | 6.9 ± 0.5 µM | 1.1 | 6.5 ± 0.7 µM | 0.35 ± 0.19 µM | 0.89 ± 0.01 µM | 9 ± 0.7 µM | 0.8 | 7.3 ± 2.8 µM | –
7 | Cc1nccc2c1[nH]c1cc(OCCn3cc(-[c-]4cccc4)nn3)ccc12.[Fe+2].c1cc[cH-]c1 [Compound 23, 1-Methyl-7-(2-(4-ferrocenyl-1H-1,2,3-triazol-1-yl)ethoxy)-9H-pyrido[3,4-b]indole] | 9.5 ± 0.5 µM | 8 ± 0.2 µM | 2.1 | 7.6 ± 0.1 µM | 0.15 ± 0.05 µM | 1.02 ± 0.52 µM | 38.6 ± 2.8 µM | 0.4 | 17.1 ± 1.8 µM | –
8 | COc1ccc2c3ccnc(C)c3n(CCn3cc(-[c-]4cccc4)nn3)c2c1.[Fe+2].c1cc[cH-]c1 [Compound 24, 7-Methoxy-1-methyl-9-(2-(4-ferrocenyl-1H-1,2,3-triazol-1-yl)ethyl)-9H-pyrido[3,4-b]indole] | > 50 µM | > 50 µM | >1 | > 50 µM | 1.35 ± 0.28 µM | 2.31 ± 0.29 µM | > 50 µM | >1 | > 50 µM | –
9 | [Fe+2].c1cc[cH-]c1.c1ccc2c(c1)[nH]c1c(-c3cn(C[c-]4cccc4)nn3)nccc12 [Compound 25, 1-(1-(Ferrocenylmethyl)-1H-1,2,3-triazol-4-yl)-9H-pyrido[3,4-b]indole] | > 50 µM | > 50 µM | >1 | 23.1 ± 6.4 µM | 3.62 ± 1.08 µM | 4.37 ± 1.79 µM | 7.6 ± 0.5 µM | >6.6 | > 50 µM | –
10 | Cc1nc(-c2cn(C[c-]3cccc3)nn2)cc2c1[nH]c1ccccc12.[Fe+2].c1cc[cH-]c1 [Compound 26, 3-(1-(Ferrocenylmethyl)-1H-1,2,3-triazol-4-yl)-1-methyl-9H-pyrido[3,4-b]indole] | 12.3 ± 5 µM | 3.7 ± 0.2 µM | 12.6 | 3.8 ± 0.4 µM | 2.63 ± 0.27 µM | 4.02 ± 0.61 µM | 35.2 ± 4.7 µM | 1.3 | 46.5 ± 1 µM | activity against MCF-7 relative to 5-FU (fold stronger) [2]: 3–6.5 fold
11 | Cc1nccc2c1[nH]c1ccc(OCc3cn(C[c-]4cccc4)nn3)cc12.[Fe+2].c1cc[cH-]c1 [Compound 27, 6-((1-(Ferrocenylmethyl)-1H-1,2,3-triazol-4-yl)methoxy)-1-methyl-9H-pyrido[3,4-b]indole] | 17 ± 0.3 µM | 6.8 ± 0.2 µM | 6.3 | 8.1 ± 0.2 µM | 0.31 ± 0.01 µM | 1.09 ± 0.01 µM | > 50 µM | < 0.9 | 43 ± 8.6 µM | activity against MCF-7 relative to 5-FU (fold stronger) [2]: 3–6.5 fold
12 | O=C(NCc1nccc2c1[nH]c1ccccc12)[c-]1cccc1.[Fe+2].c1cc[cH-]c1 [Compound 30, N-((9H-Pyrido[3,4-b]indol-1-yl)methyl)ferrocenecarboxamide] | > 50 µM | 8.5 ± 1.5 µM | >5.9 | 45.1 ± 3.7 µM | > 56 µM | 14 ± 1.95 µM | 16.8 ± 0.9 µM | >3 | > 50 µM | activity against MCF-7 relative to 5-FU (fold stronger) [2]: 3–6.5 fold
13 | Cc1nc(CNC(=O)[c-]2cccc2)cc2c1[nH]c1ccccc12.[Fe+2].c1cc[cH-]c1 [Compound 31, N-((1-Methyl-9H-pyrido[3,4-b]indol-3-yl)methyl)ferrocenecarboxamide] | > 50 µM | 19.9 ± 1.1 µM | >2.51 | > 50 µM | 13.2 ± 8.54 µM | 8.03 ± 0.19 µM | > 50 µM | >1 | > 50 µM | –
14 | Cc1nccc2c1[nH]c1cc(OCCNC(=O)[c-]3cccc3)ccc12.[Fe+2].c1cc[cH-]c1 [Compound 32, N-(2-((1-Methyl-9H-pyrido[3,4-b]indol-7-yl)oxy)ethyl)ferrocenecarboxamide] | 15.6 ± 0.3 µM | 9.1 ± 1.4 µM | 2 | 9.9 ± 4 µM | 0.3 ± 0.09 µM | 0.66 ± 0.01 µM | 6.6 ± 0.8 µM | 2.8 | 18.6 ± 0.2 µM | –
15 | COc1ccc2c(c1)[nH]c1c(C)nccc12 [HAR, harmine] | – | – | – | – | – | – | – | – | – | IC50 ([1]; Homo sapiens, HepG2, 72 h): 18.7 ± 0.8 µM; IC50 ([2]; Homo sapiens, MCF7, 72 h): 13.5 ± 1.1 µM; IC50 ([3]; Homo sapiens, SW-620, 72 h): 4.7 ± 0.6 µM; IC50 [5, 11]: > 27.7 µM; IC50 PfDd2 [5, 9]: not active at all; IC50 ([6]; Homo sapiens, HCT-116, 72 h): 4 ± 0.8 µM; IC50 ([7]; Homo sapiens, HEK-293T): 12.6 ± 0.8 µM
